# Test results published in patent US11213567B2, “ZAG-derived peptide and use thereof” (L&C Bio Co., LTD., priority 2017, dated 2022).
# B1: Z0: ZAG protein, entire sequence of 298 amino acids (GenBank: AAH05306.1; SEQ ID NO: 19) (protein, listed as Homo sapiens)
# chain: MVRMVPVLLSLLLLLGPAVPQENQDGRYSLTYIYTGLSKHVEDVPAFQALGSLNDLQFFRYNSKDRKSQPMGLWRQVEGMEDWKQDSQLQKAREDIFMETLKDIVEYYNDSNGSHVLQGRFGCEIENNRSSGAFWKYYYDGKDYIEFNKEIPAWVPFDPAAQITKQKWEAEPVYVQRAKAYLEEECPATLRKYLKYSKNILDRQDPPSVVVTSHQAPGEKKKLKCLAYDFYPGKIDVHWTRAGEVQEPELRGDVLHNGNGTYQSWVVVAVPPQDTAPYSCHVQHSSLAQPLVVPWEAS
# Test system: IgE
# Assay: Atopic dermatitis efficacy test using B lymphocytes (RPMI 1788): IgE released after LPS, ELISA
# Format: cell-based, human
# Design: key: •: have statistical significance, determining as effective, compared with the positive control
# Settings: Table 3, 1 μg/mL for 24 hours, then LPS 0.1 μg/mL 24 hours, vs stimulator only
# Experimental: (§1) To select an amino acid sequence corresponding to a key active site of ZAG having efficacy in the alleviation of atopic symptoms from 18 peptide candidate groups, an atopic dermatitis efficacy test was performed. Five types of immune-related cells were treated with ZAG peptide candidate groups (Z1-Z18, SEQ ID NOs: 1 to 18, respectively) and the ZAG protein (Z0, SEQ ID NOs: 19) at a concentration of 1 μg/mL for 24 hours, and then treated with a stimulator suitable for each cell line for the listed time to confirm an immune response. The experiment was performed with a group treated with only a stimulator as a positive control experimental group, and a group treated with only a vehicle without a stimulator as a negative control experimental group (Table 2: Efficacy test method for atopic dermatitis). An inflammatory response-related enzyme used as a stimulator is produced by immune cells, and histamine initiates an inflammatory response. The immune cells migrating to a damaged region release cytokines such as tumor necrosis factor-α (TNF-α) and interleukin-6 (IL-6) to directly lyse foreign invasive substances or collect other immune cells to initiate an inflammatory response. An efficacy test using inflammation-inducing materials, interferon-γ and skin inflammation-related factor CCL-17/thymus- and activation-regulated chemokine (TARC) was also performed to confirm an immune response.
# B lymphocytes (RPMI 1788) were treated with 0.1 μg/mL of LPS as a stimulator for 24 hours, and a concentration of IgE released in a cell culture medium was confirmed by ELISA assay.
# (§2) Various types of immune cells were treated with each of Z20mer-1, Z20mer-2, Z20mer-3, Z15mer-1, Z15mer-2, Z15mer-3 and Z15mer-4 at a concentration of 1 μg/mL for 24 hours, and then treated with a stimulator suitable for each cell line for the listed time to confirm an immune response. The atopic dermatitis efficacy test method was performed by the same method as described in Example 1 and Table 2.
# (§3) The experiment was performed with experimental groups: 1) negative control: vehicle-treated group (Neg), 2) positive control: a group treated with only a stimulator (Pos), and 3) experimental group: groups treated with a stimulator and ZAG3 or a ZAG3-derived oligopeptide (Z20mer-1, Z20mer-2, Z20mer-3, Z15mer-1, Z15mer-2, Z15mer-3 or Z15mer-4). Concentrations were measured from cell culture by ELISA.
# B lymphocytes (RPMI 1788) were treated with 0.1 μg/mL of LPS as a stimulator for 24 hours, and then a concentration of IgE released in a cell culture medium was confirmed by ELISA assay. As compared with the positive control (Pos), in all of the oligopeptide-treated groups, IgE was reduced (FIG. 2D).
row,Molecule,B lymphocyte (human) IgE
1,"Z8: ZAG protein-derived peptide, SEQ ID NO. 8: YPGKIDVHWTRAGEVQEPELRGDVLHNGNG (ZAG protein-derived peptide)",•
2,"Z14: ZAG protein-derived peptide, SEQ ID NO. 14: IFMETLKDIVEYYNDSNGSHVLQGRFGCEI (ZAG protein-derived peptide)",•
3,B1,•

# Same assay, conditions: Table 5, 1 μg/mL for 24 hours, then LPS 0.1 μg/mL 24 hours, vs positive control
row,Molecule,B lymphocyte (human) IgE
1,"Z15mer-3: ZAG3-derived oligopeptide, SEQ ID NO. 25: KAREDIFMETLKDIV (ZAG protein-derived peptide)",•
2,"Z15mer-4: ZAG3-derived oligopeptide, SEQ ID NO. 26: IFMETLKDIVEYYND (ZAG protein-derived peptide)",•

# Test system: IL-4
# Assay: Atopic dermatitis efficacy test using T lymphocytes: IL-4 released after IL-2, ELISA
# Format: cell-based, human
# Design: key to T lymphocyte (human) IL-4: •: have statistical significance, determining as effective, compared with the positive control
# Settings: Example 1-5, FIG. 1E; T lymphocytes; 1 μg/mL 24 hours, IL-2 50 ng/mL 12 hours
# Experimental: as §1
# An atopic dermatitis efficacy test using T lymphocytes was performed with six peptide candidate groups (Z3, Z4, Z5, Z12, Z14, and Z15), which were determined to have efficacy from the results of Examples 1-1 to 1-4 described above. T lymphocytes were treated with 50 ng/mL of IL-2 as a stimulator for 12 hours, and a concentration of IL-4 released in a cell culture medium was confirmed by ELISA assay.
# as §2, §3
# An experiment was performed on T lymphocytes using the target peptides selected through the previous experiment. As compared with the positive control (Pos), in all of the oligopeptide-treated groups (Z20mer-1, Z20mer-2, Z20mer-3, Z15mer-1, Z15mer-2, Z15mer-3, and Z15mer-4), IL-4 was reduced (FIG. 2E).
row,Molecule,IL-4 concentration released in cell culture medium
1,"Z14: ZAG protein-derived peptide, SEQ ID NO. 14: IFMETLKDIVEYYNDSNGSHVLQGRFGCEI (ZAG protein-derived peptide)",significantly decreased

# Same assay, conditions: Example 2-5, FIG. 2E; T lymphocytes; 1 μg/mL 24 hours; compared with positive control (Pos)
row,Molecule,IL-4
1,"Z15mer-3: ZAG3-derived oligopeptide, SEQ ID NO. 25: KAREDIFMETLKDIV (ZAG protein-derived peptide)",reduced
2,"Z15mer-4: ZAG3-derived oligopeptide, SEQ ID NO. 26: IFMETLKDIVEYYND (ZAG protein-derived peptide)",reduced

# Same assay, conditions: Table 3; 1 μg/mL for 24 hours, then IL-2 50 ng/mL 12 hours; vs stimulator only
row,Molecule,T lymphocyte (human) IL-4
1,"Z14: ZAG protein-derived peptide, SEQ ID NO. 14: IFMETLKDIVEYYNDSNGSHVLQGRFGCEI (ZAG protein-derived peptide)",•
2,B1,•

# Same assay, conditions: Table 5; 1 μg/mL for 24 hours, then IL-2 50 ng/mL 12 hours; vs positive control
row,Molecule,T lymphocyte (human) IL-4
1,"Z15mer-3: ZAG3-derived oligopeptide, SEQ ID NO. 25: KAREDIFMETLKDIV (ZAG protein-derived peptide)",•
2,"Z15mer-4: ZAG3-derived oligopeptide, SEQ ID NO. 26: IFMETLKDIVEYYND (ZAG protein-derived peptide)",•

# Test system: CCL17/TARC
# Assay: Atopic dermatitis efficacy test using keratinocytes (HaCaT): CCL17/TARC released after TNF-α and IFN-γ, ELISA
# Format: cell-based, human
# Design: key to HaCaT (human) CCL17/TARC: •: have statistical significance, determining as effective, compared with the positive control
# Settings: Example 2-3, FIG. 2C; HaCaT; 1 μg/mL 24 hours, TNF-α 0.4 μg/mL and IFN-γ 0.4 μg/mL 24 hours; compared with positive control (Pos)
# Experimental: as §1
# Keratinocytes (HaCaT cells) were treated with 0.4 μg/mL of TNF-α and 0.4 μg/mL of IFN-γ as stimulators for 24 hours, and then a concentration of CCL17/TARC released in a cell culture medium was confirmed by ELISA assay.
# as §2, §3
row,Molecule,CCL17/TARC concentration released in cell culture medium
1,"Z15mer-3: ZAG3-derived oligopeptide, SEQ ID NO. 25: KAREDIFMETLKDIV (ZAG protein-derived peptide)",significantly decreased
2,"Z15mer-4: ZAG3-derived oligopeptide, SEQ ID NO. 26: IFMETLKDIVEYYND (ZAG protein-derived peptide)",significantly decreased

# Same assay, conditions: Table 3; 1 μg/mL for 24 hours, then TNF-α 0.4 μg/mL, IFN-γ 0.4 μg/mL 24 hours; vs stimulator only
row,Molecule,HaCaT (human) CCL17/TARC
1,"Z8: ZAG protein-derived peptide, SEQ ID NO. 8: YPGKIDVHWTRAGEVQEPELRGDVLHNGNG (ZAG protein-derived peptide)",•
2,"Z14: ZAG protein-derived peptide, SEQ ID NO. 14: IFMETLKDIVEYYNDSNGSHVLQGRFGCEI (ZAG protein-derived peptide)",•
3,B1,•

# Same assay, conditions: Table 5; 1 μg/mL for 24 hours, then TNF-α 0.4 μg/mL, IFN-γ 0.4 μg/mL 24 hours; vs positive control
row,Molecule,HaCaT (human) CCL17/TARC
1,"Z15mer-3: ZAG3-derived oligopeptide, SEQ ID NO. 25: KAREDIFMETLKDIV (ZAG protein-derived peptide)",•
2,"Z15mer-4: ZAG3-derived oligopeptide, SEQ ID NO. 26: IFMETLKDIVEYYND (ZAG protein-derived peptide)",•

# Test system: Histamine
# Assay: Atopic dermatitis efficacy test using mast cells (RBL-2H3): histamine released after PMA and A23187, ELISA
# Format: cell-based, rat
# Design: key: •: have statistical significance, determining as effective, compared with the positive control
# Settings: Table 3; 1 μg/mL for 24 hours, then PMA 1 μg/mL, A23187 1 μg/mL 12 hours; vs stimulator only
# Experimental: as §1
# Mast cells (RBL-2H3) were treated with 1 μg/mL of PMA and 1 μg/mL of A23187 as stimulators for 12 hours, and a concentration of histamine released in a cell culture medium was confirmed by ELISA assay.
# as §2, §3
# Mast cells (RBL-2H3) were treated with 1 μg/mL of PMA and 1 μg/mL of A23187 as simulators for 12 hours, and then a concentration of histamine released in a cell culture medium was confirmed by ELISA assay. As compared with the positive control (Pos), in all of the oligopeptide-treated groups, the histamine release was reduced (FIG. 2B).
row,Molecule,RBL-2H3 (rat) Histamine
1,"Z8: ZAG protein-derived peptide, SEQ ID NO. 8: YPGKIDVHWTRAGEVQEPELRGDVLHNGNG (ZAG protein-derived peptide)",•
2,"Z14: ZAG protein-derived peptide, SEQ ID NO. 14: IFMETLKDIVEYYNDSNGSHVLQGRFGCEI (ZAG protein-derived peptide)",•
3,B1,•

# Same assay, conditions: Table 5; 1 μg/mL for 24 hours, then PMA 1 μg/mL, A23187 1 μg/mL 12 hours; vs positive control
row,Molecule,RBL-2H3 (rat) Histamine
1,"Z15mer-3: ZAG3-derived oligopeptide, SEQ ID NO. 25: KAREDIFMETLKDIV (ZAG protein-derived peptide)",•
2,"Z15mer-4: ZAG3-derived oligopeptide, SEQ ID NO. 26: IFMETLKDIVEYYND (ZAG protein-derived peptide)",•

# Test system: IL-6
# Assay: Atopic dermatitis efficacy test using macrophages (RAW 264.7): IL-6 released after LPS, ELISA
# Format: cell-based, mouse
# Design: key to RAW 264.7 (mouse) IL-6: •: have statistical significance, determining as effective, compared with the positive control
# Settings: Example 2-1, FIG. 2A; RAW 264.7; 1 μg/mL 24 hours, LPS 0.1 μg/mL 24 hours; compared with positive control (Pos)
# Experimental: as §1
# Macrophages (RAW 264.7 cells) were treated with a stimulator LPS at a concentration of 0.1 μg/mL for 24 hours, and then the concentration of IL-6 released in a cell culture medium was confirmed by ELISA assay.
# as §2, §3
# Macrophages (RAW 264.7 cells) were treated with a stimulator LPS at a concentration of 0.1 μg/mL for 24 hours, and then a concentration of IL-6 released in a cell culture medium was confirmed by ELISA assay.
row,Molecule,IL-6 concentration released in cell culture medium
1,"Z15mer-3: ZAG3-derived oligopeptide, SEQ ID NO. 25: KAREDIFMETLKDIV (ZAG protein-derived peptide)",significantly decreased
2,"Z15mer-4: ZAG3-derived oligopeptide, SEQ ID NO. 26: IFMETLKDIVEYYND (ZAG protein-derived peptide)",significantly decreased

# Same assay, conditions: Table 3; 1 μg/mL for 24 hours, then LPS 0.1 μg/mL 24 hours; vs stimulator only
row,Molecule,RAW 264.7 (mouse) IL-6
1,"Z8: ZAG protein-derived peptide, SEQ ID NO. 8: YPGKIDVHWTRAGEVQEPELRGDVLHNGNG (ZAG protein-derived peptide)",•
2,"Z14: ZAG protein-derived peptide, SEQ ID NO. 14: IFMETLKDIVEYYNDSNGSHVLQGRFGCEI (ZAG protein-derived peptide)",•
3,B1,•

# Same assay, conditions: Table 5; 1 μg/mL for 24 hours, then LPS 0.1 μg/mL 24 hours; vs positive control
row,Molecule,RAW 264.7 (mouse) IL-6
1,"Z15mer-3: ZAG3-derived oligopeptide, SEQ ID NO. 25: KAREDIFMETLKDIV (ZAG protein-derived peptide)",•
2,"Z15mer-4: ZAG3-derived oligopeptide, SEQ ID NO. 26: IFMETLKDIVEYYND (ZAG protein-derived peptide)",•
